# Data taken from patent US20260256792A1, “TREATMENT OF CHRONIC SPONTANEOUS URTICARIA BY ADMINISTERING (R)-2-[3-[4-AMINO-3-(2-FLUORO-4-PHENOXY-PHENYL)PYRAZOLO[3,4-D]PYRIMIDIN-1-YL]PIPERIDINE-1-CARBONYL]-4-METHYL-4-[4-(OXETAN-3-YL)PIPERAZIN-1-YL]PENT-2-ENENITRILE” (priority 2023, published 2026).
# System: moderate-to-severe chronic spontaneous urticaria (CSU)
# Assay: Phase 2 CSU study: itch severity score over 7 days (ISS7)
# Type: in vivo, human
# Settings: for Change from Baseline in ISS7 at Week 12, LS Mean / Change from Baseline in ISS7 at Week 12, LS Mean Diff vs. placebo / Change from Baseline in ISS7 at Week 12, Mean: Omalizumab-naïve population; for ISS7 change from baseline at Week 12, LS Mean / ISS7 change from baseline at Week 12, LS Mean Diff vs. placebo: ANCOVA
# From the text: The study comprises a 12 week, randomized, double-blind, placebo-controlled, multi-center, dose-ranging efficacy and safety phase, followed by a 40 week open label extension (OLE) phase (see FIG. 1). The study consists of three phases and an optional OLE phase. […] Clinically, CSU is characterized by the spontaneous and recurrent appearance of pruritic hives. The proposed primary endpoints were the UAS7 at Week 12 in EU and EU reference countries and the ISS7 in the US. Regardless of where a participant was from, all assessments were the same. The UAS7 score is a composite score containing both the HSS7 and the ISS7. This allowed a global assessment of the two key components of urticaria: hives and itch. […] The UAS is a validated PRO measure. […] The daily UAS scores range from 0 to 6 point/day. […] Patients were to complete the UAS using the e-diary. […] The following secondary endpoints were to be analyzed using the same approach as for the primary endpoint: • Change from baseline in UAS7 at Week 4 • Change from baseline in UAS7 at Week 12 (for US and US reference countries) • Change from baseline in ISS7 at Week 12 (except US and US reference countries) • Change from baseline in HSS7 at Week 12
# [1] = 400 mg QPM, Duration of disease (years) <2
# [2] = 400 mg QPM, Duration of disease (years) >10
# [3] = 400 mg QPM, Ethnicity Non-Hispanic
# [4] = 400 mg QPM, History of angioedema No
# [5] = 400 mg QPM, History of angioedema Yes
# [6] = 400 mg QPM, Race All the Others
# [7] = 400 mg QPM, Region Eastern Europe
# [8] = 400 mg QPM, Region Latin America
# [9] = 400 mg QPM, Region Western Countries
# [10] = 400 mg QPM, omalizumab-naïve population
# [11] = 400 mg QPM, omalizumab-naïve population with outlier removed
# [12] = 400 mg TID, Age group (years) <44 (Median)
# [13] = 400 mg TID, Age group (years) <65
# [14] = 400 mg TID, Age group (years) ≥44 (Median)
# [15] = 400 mg TID, Baseline BHRA BHRA+
# [16] = 400 mg TID, Baseline BHRA BHRA−
# [17] = 400 mg TID, Baseline Eosinophils (10^9/L) <0.150
# [18] = 400 mg TID, Baseline Eosinophils (10^9/L) <0.165 (Median)
# [19] = 400 mg TID, Baseline Eosinophils (10^9/L) <0.3
# [20] = 400 mg TID, Baseline Eosinophils (10^9/L) ≥0.150
# [21] = 400 mg TID, Baseline Eosinophils (10^9/L) ≥0.165 (Median)
# [22] = 400 mg TID, Baseline Eosinophils (10^9/L) ≥0.3
# [23] = 400 mg TID, Baseline H1-antihistamines dose 1-fold
# [24] = 400 mg TID, Baseline H1-antihistamines dose 2 to 4-fold standard dose
compound,measurement,setting,value
"CC(C)(C=C(C#N)C(=O)N1CCC[C@@H](n2nc(-c3ccc(Oc4ccccc4)cc3F)c3c(N)ncnc32)C1)N1CCN(C2COC2)CC1 [rilzabrutinib, (R)-2-[3-[4-amino-3-(2-fluoro-4-phenoxy-phenyl)pyrazolo[3,4-d]pyrimidin-1-yl]piperidine-1-carbonyl]-4-methyl-4-[4-(oxetan-3-yl)piperazin-1-yl]pent-2-enenitrile]","Change from Baseline in ISS7 at Week 12, LS Mean",[1],−4.83
same,"Change from Baseline in ISS7 at Week 12, LS Mean Diff vs. placebo",[1],−1.18
same,"Change from Baseline in ISS7 at Week 12, Mean",[1],−5.46
same,"Change from Baseline in ISS7 at Week 12, LS Mean",[2],−0.20
same,"Change from Baseline in ISS7 at Week 12, LS Mean Diff vs. placebo",[2],3.49
same,"Change from Baseline in ISS7 at Week 12, Mean",[2],−3.29
same,"Change from Baseline in ISS7 at Week 12, LS Mean","400 mg QPM, Ethnicity Hispanic",−4.19
same,"Change from Baseline in ISS7 at Week 12, LS Mean Diff vs. placebo","400 mg QPM, Ethnicity Hispanic",2.82
same,"Change from Baseline in ISS7 at Week 12, Mean","400 mg QPM, Ethnicity Hispanic",−5.04
same,"Change from Baseline in ISS7 at Week 12, LS Mean",[3],−5.29
same,"Change from Baseline in ISS7 at Week 12, LS Mean Diff vs. placebo",[3],−0.82
same,"Change from Baseline in ISS7 at Week 12, Mean",[3],−6.12
same,"Change from Baseline in ISS7 at Week 12, Mean","400 mg QPM, Gender Female",−5.86
same,"Change from Baseline in ISS7 at Week 12, Mean","400 mg QPM, Gender Male",−5.20
same,"Change from Baseline in ISS7 at Week 12, LS Mean",[4],−4.56
same,"Change from Baseline in ISS7 at Week 12, LS Mean Diff vs. placebo",[4],0.78
same,"Change from Baseline in ISS7 at Week 12, Mean",[4],−5.32
same,"Change from Baseline in ISS7 at Week 12, LS Mean",[5],−5.00
same,"Change from Baseline in ISS7 at Week 12, LS Mean Diff vs. placebo",[5],0.25
same,"Change from Baseline in ISS7 at Week 12, Mean",[5],−6.31
same,"ISS7 at Week 12, Mean","400 mg QPM, ITT population",11.37
same,"ISS7 at Week 12, Median","400 mg QPM, ITT population",11.20
same,"ISS7 change from baseline at Week 12, Mean","400 mg QPM, ITT population",−5.95
same,"ISS7 change from baseline at Week 12, Median","400 mg QPM, ITT population",−5.67
same,"ISS7 change from baseline at Week 12, LS Mean","400 mg QPM, ITT population",−5.46 points
same,"ISS7 change from baseline at Week 12, LS Mean Diff vs. placebo","400 mg QPM, ITT population",0.85
same,"Change from Baseline in ISS7 at Week 12, LS Mean",[6],−4.94
same,"Change from Baseline in ISS7 at Week 12, LS Mean Diff vs. placebo",[6],−1.48
same,"Change from Baseline in ISS7 at Week 12, Mean",[6],−5.66
same,"Change from Baseline in ISS7 at Week 12, LS Mean","400 mg QPM, Race White",−4.41
same,"Change from Baseline in ISS7 at Week 12, LS Mean Diff vs. placebo","400 mg QPM, Race White",1.60
same,"Change from Baseline in ISS7 at Week 12, Mean","400 mg QPM, Race White",−5.70
same,"Change from Baseline in ISS7 at Week 12, LS Mean","400 mg QPM, Region Asia",−5.17
same,"Change from Baseline in ISS7 at Week 12, LS Mean Diff vs. placebo","400 mg QPM, Region Asia",−1.72
same,"Change from Baseline in ISS7 at Week 12, Mean","400 mg QPM, Region Asia",−5.66
same,"Change from Baseline in ISS7 at Week 12, LS Mean",[7],−4.74
same,"Change from Baseline in ISS7 at Week 12, LS Mean Diff vs. placebo",[7],7.93
same,"Change from Baseline in ISS7 at Week 12, Mean",[7],−5.54
same,"Change from Baseline in ISS7 at Week 12, LS Mean",[8],−5.19
same,"Change from Baseline in ISS7 at Week 12, LS Mean Diff vs. placebo",[8],1.40
same,"Change from Baseline in ISS7 at Week 12, Mean",[8],−6.51
same,"Change from Baseline in ISS7 at Week 12, LS Mean",[9],−3.02
same,"Change from Baseline in ISS7 at Week 12, LS Mean Diff vs. placebo",[9],1.53
same,"Change from Baseline in ISS7 at Week 12, Mean",[9],−4.61
same,"ISS7 at Week 12, Median",[10],11.60
same,"ISS7 change from baseline at Week 12, Mean",[10],−5.69
same,"ISS7 change from baseline at Week 12, Median",[10],−5.33
same,"ISS7 at Week 12, Median",[11],11.60
same,"ISS7 change from baseline at Week 12, Mean",[11],−5.69
same,"ISS7 change from baseline at Week 12, Median",[11],−5.33
same,"ISS7 change from baseline at Week 12, LS Mean",[11],−5.29 points
same,"ISS7 change from baseline at Week 12, LS Mean Diff vs. placebo",[11],0.42
same,"ISS7 change from baseline at Week 12, LS Mean",[10],−5.19 points
same,"ISS7 change from baseline at Week 12, LS Mean Diff vs. placebo",[10],0.58
same,patients with improvement in the weekly ISS7,400 mg TID arm,all patients except one showed improvement
same,"Change from Baseline in ISS7 at Week 12, LS Mean",[12],−9.04
same,"Change from Baseline in ISS7 at Week 12, LS Mean Diff vs. placebo",[12],−4.56
same,"Change from Baseline in ISS7 at Week 12, LS Mean",[13],−8.63
same,"Change from Baseline in ISS7 at Week 12, LS Mean Diff vs. placebo",[13],−2.97
same,"Change from Baseline in ISS7 at Week 12, Mean",[13],−9.73
same,"Change from Baseline in ISS7 at Week 12, LS Mean",[14],−9.26
same,"Change from Baseline in ISS7 at Week 12, LS Mean Diff vs. placebo",[14],−2.66
same,"Change from Baseline in ISS7 at Week 12, Mean",[14],−10.16
same,"Change from Baseline in ISS7 at Week 12, Mean","400 mg TID, Age group (years) ≥65",−13.50
same,"Change from Baseline in ISS7 at Week 12, LS Mean",[15],−12.96
same,"Change from Baseline in ISS7 at Week 12, LS Mean Diff vs. placebo",[15],−7.58
same,"Change from Baseline in ISS7 at Week 12, Mean",[15],−12.42
same,"Change from Baseline in ISS7 at Week 12, LS Mean",[16],−8.82
same,"Change from Baseline in ISS7 at Week 12, Mean",[16],−9.91
same,"Change from Baseline in ISS7 at Week 12, LS Mean Diff vs. placebo","400 mg TID, Baseline BMI (kg/m^2) ≥30",−3.19
same,"Change from Baseline in ISS7 at Week 12, LS Mean",[17],−10.28
same,"Change from Baseline in ISS7 at Week 12, LS Mean Diff vs. placebo",[17],−3.50
same,"Change from Baseline in ISS7 at Week 12, LS Mean",[18],−10.22
same,"Change from Baseline in ISS7 at Week 12, LS Mean Diff vs. placebo",[18],−3.71
same,"Change from Baseline in ISS7 at Week 12, Mean",[18],−10.99
same,"Change from Baseline in ISS7 at Week 12, LS Mean",[19],−9.46
same,"Change from Baseline in ISS7 at Week 12, LS Mean Diff vs. placebo",[19],−3.99
same,"Change from Baseline in ISS7 at Week 12, Mean",[19],−10.61
same,"Change from Baseline in ISS7 at Week 12, LS Mean",[20],−8.30
same,"Change from Baseline in ISS7 at Week 12, LS Mean Diff vs. placebo",[20],−4.31
same,"Change from Baseline in ISS7 at Week 12, LS Mean",[21],−8.24
same,"Change from Baseline in ISS7 at Week 12, LS Mean Diff vs. placebo",[21],−4.16
same,"Change from Baseline in ISS7 at Week 12, Mean",[21],−9.55
same,"Change from Baseline in ISS7 at Week 12, LS Mean",[22],−8.12
same,"Change from Baseline in ISS7 at Week 12, LS Mean Diff vs. placebo",[22],−3.27
same,"Change from Baseline in ISS7 at Week 12, Mean",[22],−8.68
same,"Change from Baseline in ISS7 at Week 12, LS Mean",[23],−8.05
same,"Change from Baseline in ISS7 at Week 12, LS Mean Diff vs. placebo",[23],−1.22
same,"Change from Baseline in ISS7 at Week 12, Mean",[23],−8.88
same,"Change from Baseline in ISS7 at Week 12, LS Mean",[24],−11.00
same,"Change from Baseline in ISS7 at Week 12, LS Mean Diff vs. placebo",[24],−7.52
